Laboratory results from patent publication US20220009892A1, “SUBSTITUTED PYRIDINE CARBOXYLIC ACIDS, THEIR PREPARATION METHOD AND COMPOSITIONS THEREOF” (INCILIA THERAPEUTICS PRIVATE LIMITED, priority 2018, published 2022).

melting point: 173 to 175 °C
SMILES: COC(=O)c1cc(OC)c(OC(=O)c2cccnc2)c(OC)c1
